Data on three compounds can be found in ChEMBL document CHEMBL1201862, “PubChem BioAssay data set” (2004).

A word on the IC50: it is the concentration that inhibits the measured activity by half.

The source made the active and inactive calls. Cut-off read from the data, not from the text of the source: actives have a measured IC50 and inactives only a lower limit.

Envelope glycoprotein gp160, sequence (Q6QLK5 whole entry, the tested form may be a part): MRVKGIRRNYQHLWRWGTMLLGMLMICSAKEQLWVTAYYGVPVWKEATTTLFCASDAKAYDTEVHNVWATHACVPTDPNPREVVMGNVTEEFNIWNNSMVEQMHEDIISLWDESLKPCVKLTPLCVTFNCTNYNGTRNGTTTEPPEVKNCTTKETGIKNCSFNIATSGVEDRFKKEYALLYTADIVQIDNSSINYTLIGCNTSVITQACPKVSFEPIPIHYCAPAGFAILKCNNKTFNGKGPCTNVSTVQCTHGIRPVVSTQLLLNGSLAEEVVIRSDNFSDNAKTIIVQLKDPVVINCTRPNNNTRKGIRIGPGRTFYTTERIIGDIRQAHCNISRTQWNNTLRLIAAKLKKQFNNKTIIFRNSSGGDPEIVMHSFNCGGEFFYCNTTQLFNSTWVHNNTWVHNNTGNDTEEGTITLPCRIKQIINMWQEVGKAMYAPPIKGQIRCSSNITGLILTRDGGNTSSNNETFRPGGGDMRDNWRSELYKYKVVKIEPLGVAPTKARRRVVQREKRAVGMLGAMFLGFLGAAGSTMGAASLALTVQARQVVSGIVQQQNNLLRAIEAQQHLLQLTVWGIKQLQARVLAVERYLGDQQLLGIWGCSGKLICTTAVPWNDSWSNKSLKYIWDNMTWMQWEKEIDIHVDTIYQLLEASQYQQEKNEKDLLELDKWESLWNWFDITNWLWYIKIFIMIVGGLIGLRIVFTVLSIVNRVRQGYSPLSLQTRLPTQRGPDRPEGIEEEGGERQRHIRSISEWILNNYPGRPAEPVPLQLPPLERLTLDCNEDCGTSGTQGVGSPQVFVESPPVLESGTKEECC

The experiment has as its target Envelope glycoprotein gp160 (Human immunodeficiency virus 1, UniProt Q6QLK5). The experiment is described as follows: inhibitors of HIV fusion peptide binding, primary screen, biochemical, uHTS, fluorescence dequenching (AID 1986).
As for `O=C(CCN1C(=O)/C(=C/c2ccccc2Cl)SC1=S)Nc1ccccc1C(=O)O`, the half-maximal inhibitory concentration (IC50) was 19.4 µM (active). Consider `COC(=O)c1sc(-c2ccc(C(C)(C)C)cc2)cc1NC(=O)CSCC(=O)O`, for which the half-inhibitory concentration (IC50) is 15.4 µM (active).

`COc1cc(/C=C2\C(=N)N3N=C(S(C)(=O)=O)SC3=NC2=O)cc(OC)c1OCCOc1ccc(C)cc1`: the half-inhibitory concentration (IC50) is 11 µM (active).
